# Source: ChEMBL document CHEMBL1201862, “PubChem BioAssay data set” (2004)
# The source made the active and inactive calls.
# Key:
# [1] = viability inhibitors of stage V gametocytes – luminescence, dose response (AID 1117278); type: functional, cell-based;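 also: gametocytes exposed to compound for 24 hours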
# [2] = viability loss in human Jurkat cells – cell-based, luminescence, cytotoxicity control for P. falciparum gametocyte viability project, dose response (AID 1117277); type: functional;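 also: potency reflects loss of cellular ATP meaning fewer viable cells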
# [3] = molecular target: Mitogen-activated protein kinase 10 (Homo sapiens, UniProt P53779); assay: Dose response biochemical screening assay for inhibitors of c-Jun N-Terminal Kinase 3 (JNK3). [Related pubchem assays: 746 ]
# Chain of Mitogen-activated protein kinase 10 (P53779 whole entry): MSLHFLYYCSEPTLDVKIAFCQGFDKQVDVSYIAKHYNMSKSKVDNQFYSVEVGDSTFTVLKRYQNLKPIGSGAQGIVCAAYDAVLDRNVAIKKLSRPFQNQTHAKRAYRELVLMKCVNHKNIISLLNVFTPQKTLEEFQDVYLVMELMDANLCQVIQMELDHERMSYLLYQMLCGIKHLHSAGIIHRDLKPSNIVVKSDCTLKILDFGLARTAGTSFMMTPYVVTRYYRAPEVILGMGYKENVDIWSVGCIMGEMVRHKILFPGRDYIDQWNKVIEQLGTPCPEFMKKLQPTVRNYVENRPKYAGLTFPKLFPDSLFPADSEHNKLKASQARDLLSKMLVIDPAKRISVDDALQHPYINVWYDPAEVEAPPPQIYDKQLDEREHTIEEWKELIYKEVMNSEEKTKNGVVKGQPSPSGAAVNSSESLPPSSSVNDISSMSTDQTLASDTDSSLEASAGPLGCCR
# [4] = viability loss in THP-1 monocytes – THP-1 cells, cytotoxicity control for Vif-APOBEC3G degradation inhibitor project, dose response (AID 1117359); type: functional; details: THP-1
# [5] = molecular target: E3 ubiquitin-protein ligase Mdm2 (Homo sapiens, UniProt Q00987); assay: MDM2-luc reporter signal enhancers, multi-concentration potency testing, MDM2 ubiquitin-protein ligase inhibitor program, whole-cell format, luminescence detection, 384-well microplate (AID 1394); type: functional;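 also: MDM2 E3 inhibitors raise luminescence so EC50 is for signal enhancement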
# Chain of E3 ubiquitin-protein ligase Mdm2 (Q00987 whole entry): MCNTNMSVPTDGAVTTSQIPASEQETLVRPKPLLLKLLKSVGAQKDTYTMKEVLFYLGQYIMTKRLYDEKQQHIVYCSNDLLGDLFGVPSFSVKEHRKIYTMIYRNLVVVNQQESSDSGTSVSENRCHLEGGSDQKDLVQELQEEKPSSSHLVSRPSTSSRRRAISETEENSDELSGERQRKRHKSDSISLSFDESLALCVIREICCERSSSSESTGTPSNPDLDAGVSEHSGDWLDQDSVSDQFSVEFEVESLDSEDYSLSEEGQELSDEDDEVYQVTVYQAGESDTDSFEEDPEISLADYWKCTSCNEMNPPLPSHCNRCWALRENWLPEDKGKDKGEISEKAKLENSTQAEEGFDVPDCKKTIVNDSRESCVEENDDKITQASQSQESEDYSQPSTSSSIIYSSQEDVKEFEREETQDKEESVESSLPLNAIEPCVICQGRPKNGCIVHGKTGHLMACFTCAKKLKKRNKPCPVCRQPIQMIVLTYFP
# Vero = assay: cells; type: functional; details: Chlorocebus sabaeus
# [6] = toxicity to human hepatoma HepG2 cells – cell-based, cherry-picked samples, cytotoxicity control, dose response (AID 1159577); type: functional
# [7] = P. falciparum Dd2 growth inhibitors, dose response, SYBR Green, cherry-picked samples (AID 1159567); type: functional, cell-based
# [8] = growth inhibition of yeast DHODH-expressing 3D7 parasites – SYBR Green, dry powder samples, dose response (AID 1159570); type: functional, cell-based;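 also: parasite growth measured after 72 hours of compound exposure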
# [9] = growth inhibition of PfATP4-mutant resistant parasites – NITD609-resistant line, SYBR Green, dry powder, dose response (AID 1159571); type: functional, cell-based;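 also: parasites synchronized at ring stage by sorbitol before testing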
# [10] = Dd2 malaria parasite growth inhibition potency – SYBR Green, dry powder samples, dose response (AID 1159566); type: functional, cell-based;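 also: potency for growth inhibition with lower SYBR green DNA signal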
# [11] = toxicity to human HepG2 hepatoma cells – cell-based, plate reader, dry powder samples, cytotoxicity control, dose response (AID 1159569); type: functional;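 also: inhibitor potency with signal falling toward the positive control level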
# [12] = rise of 4N DNA cells, HeLa – IC50, dose response (AID 1117351); type: functional, cell-based
# [13] = SNU-C1 cell viability reduction, dose response, CellTiter-Glo luminescence (AID 1117323); type: functional, cell-based
# [14] = cytotoxicity toward HCT116 cells – cell-based, CellTiter-Glo luminescence, IC50, dose response (AID 1117332); type: functional; details: HCT-116
# [15] = CellTiter-Glo luminescence survival assay, SW480 colon tumor line, concentration-response curve, half-maximal inhibitory concentration (AID 1117338); type: functional
# [16] = cytotoxicity toward HT-29 cells – cell-based, CellTiter-Glo luminescence, IC50, dose response (AID 1117330); type: functional
# [17] = cytotoxicity toward Colo320 cells – cell-based, CellTiter-Glo luminescence, IC50, dose response (AID 1117334); type: functional; details: COLO 320
# [18] = RKO cell viability reduction, dose response, CellTiter-Glo luminescence (AID 1117322); type: functional
# [19] = Reduced DLD-1 viability, concentration-response, CellTiter-Glo luminescence (AID 1117352); type: functional
# [20] = rise of 2N DNA cells, HeLa – IC50, dose response (AID 1117349); type: functional, cell-based
# [21] = HCT116 cell viability decrease, GSK3B pretreatment – CellTiter-Glo, IC50, dose response (AID 1117339); type: functional; details: HCT-116
# [22] = molecular target: Tyrosyl-DNA phosphodiesterase 2 (Homo sapiens, UniProt O95551); assay: potency against TDP2 phosphodiesterase activity – biochemical, epi absorbance, IC50, dose response (AID 743297)
# Chain of Tyrosyl-DNA phosphodiesterase 2 (O95551 whole entry): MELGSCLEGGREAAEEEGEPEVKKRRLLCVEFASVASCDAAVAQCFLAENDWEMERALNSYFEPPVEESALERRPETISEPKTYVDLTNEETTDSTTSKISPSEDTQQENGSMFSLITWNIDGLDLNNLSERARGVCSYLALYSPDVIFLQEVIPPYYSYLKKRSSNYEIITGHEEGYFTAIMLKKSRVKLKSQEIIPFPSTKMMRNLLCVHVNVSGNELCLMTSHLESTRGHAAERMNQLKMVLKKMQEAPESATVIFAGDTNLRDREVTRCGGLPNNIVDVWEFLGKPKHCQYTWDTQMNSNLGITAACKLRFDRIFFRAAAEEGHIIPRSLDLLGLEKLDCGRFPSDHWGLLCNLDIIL
# [23] = molecular target: T1, Apoptotic protease-activating factor 1 (Homo sapiens, UniProt O14727); type: functional
# T1 sequence (O14727 whole entry): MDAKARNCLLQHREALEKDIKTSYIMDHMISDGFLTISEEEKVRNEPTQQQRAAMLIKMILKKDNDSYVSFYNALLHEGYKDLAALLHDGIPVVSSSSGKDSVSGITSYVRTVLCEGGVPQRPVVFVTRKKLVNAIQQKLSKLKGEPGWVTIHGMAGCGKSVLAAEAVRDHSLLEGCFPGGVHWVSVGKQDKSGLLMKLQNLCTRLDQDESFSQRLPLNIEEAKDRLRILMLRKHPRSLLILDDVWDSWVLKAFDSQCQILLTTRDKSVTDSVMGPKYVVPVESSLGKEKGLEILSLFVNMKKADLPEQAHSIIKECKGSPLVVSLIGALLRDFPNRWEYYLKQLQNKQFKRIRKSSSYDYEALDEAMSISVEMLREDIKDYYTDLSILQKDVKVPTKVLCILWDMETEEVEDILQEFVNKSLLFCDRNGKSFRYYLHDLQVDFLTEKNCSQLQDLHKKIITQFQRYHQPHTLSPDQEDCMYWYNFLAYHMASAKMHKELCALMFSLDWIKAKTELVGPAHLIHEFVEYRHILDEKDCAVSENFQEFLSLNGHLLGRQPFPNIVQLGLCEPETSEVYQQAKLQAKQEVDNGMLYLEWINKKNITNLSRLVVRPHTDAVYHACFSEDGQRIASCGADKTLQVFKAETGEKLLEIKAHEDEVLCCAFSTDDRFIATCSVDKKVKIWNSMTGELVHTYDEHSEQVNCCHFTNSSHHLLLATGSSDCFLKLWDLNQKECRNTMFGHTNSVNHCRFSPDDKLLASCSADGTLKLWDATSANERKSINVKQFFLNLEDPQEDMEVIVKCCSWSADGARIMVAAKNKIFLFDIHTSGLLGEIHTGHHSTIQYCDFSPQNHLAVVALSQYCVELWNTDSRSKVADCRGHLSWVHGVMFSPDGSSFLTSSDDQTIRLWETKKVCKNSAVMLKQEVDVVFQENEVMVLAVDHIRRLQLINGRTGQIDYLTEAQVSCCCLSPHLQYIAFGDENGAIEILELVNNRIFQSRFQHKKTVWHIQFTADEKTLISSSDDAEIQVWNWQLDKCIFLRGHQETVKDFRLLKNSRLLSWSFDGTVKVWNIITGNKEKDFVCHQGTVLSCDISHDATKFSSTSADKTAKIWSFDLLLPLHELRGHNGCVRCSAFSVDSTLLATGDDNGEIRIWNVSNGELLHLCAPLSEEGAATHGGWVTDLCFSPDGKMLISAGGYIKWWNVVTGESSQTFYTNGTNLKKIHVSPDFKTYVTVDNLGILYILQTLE
structure (smiles),measurement,setting,value
COC(=O)CCCC(=O)NC(C)c1cnn(-c2ccccc2C)c1C (stereo not drawn),IC50,[1],> 109000 nM (inactive)
same,IC50,[2],> 83300 nM (inactive)
Nc1nc(SCC(=O)N2CCCC2)nc(O)c1NC(=O)c1cccs1,IC50,[1],> 109000 nM (inactive)
same,IC50,[2],> 83200 nM (inactive)
O=c1[nH]c2ccccc2c2nc3ccccn3c12,IC50,[3],13800 nM (not active)
O=[N+]([O-])c1ccc2c([N+](=O)[O-])ccc3c2c1CC3,CC50,[4],> 40000 nM (active)
CN(C)c1n/c(=N/Cc2ccco2)ss1,EC50,[5],260 nM (active)
same,CC50,Vero,23800 nM (active)
COc1ccccc1C#Cc1ccc([C@H]2[C@@H](C#N)N(C(=O)C3CCC3)[C@@H]2CO)cc1,AC50,[6],> 39000 nM (inactive)
same,AC50,[7],4980 nM (active)
COc1cccc(C#Cc2ccc([C@@H]3[C@@H](CO)N(C(=O)C4CCCCC4)[C@H]3C#N)cc2)c1,AC50,[6],> 39000 nM (inactive)
same,AC50,[8],2000 nM (active)
same,AC50,[9],2060 nM (active)
same,AC50,[10],1720 nM (active)
same,AC50,[7],2600 nM (active)
same,AC50,[11],24500 nM (active)
CCCSc1ccc2[nH]c(NC(=O)OC)nc2c1 [ALBENDAZOLE],IC50,[12],61.2 nM (active)
same,IC50,[13],> 20000 nM (inactive)
same,IC50,[14],112 nM (active)
same,IC50,[15],> 20000 nM (inactive)
same,IC50,[16],> 20000 nM (inactive)
same,IC50,[17],502 nM (active)
same,IC50,[18],165 nM (active)
same,IC50,[19],108 nM (active)
same,IC50,[20],65.6 nM (active)
same,IC50,[21],158 nM (active)
CCc1oc2ccccc2c1C(=O)c1cc(I)c(O)c(I)c1 [BENZIODARONE],IC50,[12],> 10000 nM (inactive)
same,IC50,[13],1 nM (active)
same,IC50,[14],3 nM (active)
same,IC50,[15],1 nM (active)
same,IC50,[16],1 nM (active)
same,IC50,[17],3 nM (active)
same,IC50,[18],3 nM (active)
same,IC50,[19],3 nM (active)
same,IC50,[20],> 10000 nM (inactive)
same,IC50,[21],1 nM (active)
COc1cc2c(cc1O)[C@@H]1Cc3ccc(OC)c(O)c3CN1CC2 [SCOULERINE],IC50,[22],> 128000 nM (inactive)
same,IC50,[23],16300 nM (active)
